PubChem BioAssay AID1259411 (Chemical Carcinogenesis Research Information System (CCRIS), 2018)
Calls of active or inactive are those of the source. The rule behind the calls is not given here.

Tested on: rodent carcinogenicity bioassays, tumor incidence
Test: CCRIS carcinogenicity studies
Method in brief: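 Archive of carcinogenicity, mutagenicity, tumor promotion and tumor inhibition results drawn from journals, NCI reports and other sources, expert-reviewed; covers 1985-2011 and is no longer updated.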

COC(=O)C1=C(C)NC(C)=C(C(=O)OCCc2ccc(N3CCN(C(c4ccccc4)c4ccccc4)CC3)cc2)C1c1cccc([N+](=O)[O-])c1 (configuration not stated)
carcinogen call (Species: MOUSE, Strain/Sex: B6C3F1/FEMALE, Route: ORAL, Dose: 0, 30, 90, 300 PPM IN DIET FOR 18 MO (STUDY DURATION: 18 MO), Dose: 0, 30, 90, 300 PPM IN DIET FOR 18 MO (STUDY DURATION: 18 MO)): inactive; negative
carcinogen call (Species: MOUSE, Strain/Sex: B6C3F1/MALE, Route: ORAL, Dose: 0, 30, 90, 300 PPM IN DIET FOR 18 MO (STUDY DURATION: 18 MO), Dose: 0, 30, 90, 300 PPM IN DIET FOR 18 MO (STUDY DURATION: 18 MO)): inactive; negative
carcinogen call (Species: RAT, Strain/Sex: F344/FEMALE, Route: ORAL, Dose: 0, 30, 90, 300 PPM IN DIET FOR 24 MO (STUDY DURATION: 24 MO), Dose: 0, 30, 90, 300 PPM IN DIET FOR 24 MO (STUDY DURATION: 24 MO)): inactive; negative
carcinogen call (Species: RAT, Strain/Sex: F344/MALE, Route: ORAL, Dose: 0, 30, 90, 300 PPM IN DIET FOR 24 MO (STUDY DURATION: 24 MO), Dose: 0, 30, 90, 300 PPM IN DIET FOR 24 MO (STUDY DURATION: 24 MO)): inactive; negative

NNc1ccccc1
carcinogen call (Species: MOUSE, Route: ORAL, Tumor Site: Type of Lesion: BLOOD VESSELS, LUNG): active; positive

COc1ccc(N)c(C)c1
carcinogen call (Species: MOUSE, Strain/Sex: B6C3F1/FEMALE, Route: GAVAGE, Dose: 0, 0.06, 0.11 G/KG (FOR 53 WK), Dose: 0, 0.06, 0.11 G/KG (FOR 53 WK)): inactive; negative
carcinogen call (Species: RAT, Strain/Sex: F344/FEMALE, Route: GAVAGE, Dose: 0, 0.08, 0.16 G/KG, Dose: 0, 0.08, 0.16 G/KG, Tumor Site: Type of Lesion: URINARY BLADDER: TRANSITIONAL CELL CARCINOMA): active; positive
carcinogen call (Species: RAT, Strain/Sex: F344/MALE, Route: GAVAGE, Dose: 0, 0.08, 0.16 G/KG, Dose: 0, 0.08, 0.16 G/KG, Tumor Site: Type of Lesion: URINARY BLADDER: TRANSITIONAL CELL CARCINOMA): active; positive

CCSC(=O)N(CC)C1CCCCC1
carcinogen call (Species: Mouse, Strain/Sex: C57 BL/10JfCD-1/Alpk/Female (50/group), Route: Oral, Dose: 0, 300, 1,000, 3,000 ppm of 98.1% pure cycloate in feed for 18 mo, Dose: 0, 300, 1,000, 3,000 ppm of 98.1% pure cycloate in feed for 18 mo): inactive; negative
carcinogen call (Species: Mouse, Strain/Sex: C57 BL/10JfCD-1/Alpk/Male (50/group), Route: Oral, Dose: 0, 300, 1,000, 3,000 ppm of 98.1% pure cycloate in feed for 18 mo, Dose: 0, 300, 1,000, 3,000 ppm of 98.1% pure cycloate in feed for 18 mo): inactive; negative

c1ccc2c(c1)ccc1c3ccccc3ccc21
carcinogen call (Species: MOUSE, Route: DERMAL, Tumor Site: Type of Lesion: INTEGUMENTARY SYSTEM (SKIN)): active; positive
carcinogen call (Species: MOUSE, Strain/Sex: ICR/FEMALE, Route: DERMAL, Dose: 0, 0.1 MG, 3/WK FOR 17 MO, Tumor Site: Type of Lesion: INTEGUMENTARY SYSTEM (SKIN): CARCINOMA): active; positive
carcinogen call (Species: MOUSE, Strain/Sex: ICR/FEMALE, Route: INTRAPERITONEAL, Dose: 0, 6.3 UG TOTAL DOSE (0.9 UG/5 µL, 1.8 UG/10 µL, 3.6 UG/20 µL DMSO ON DAYS 1, 8 AND 15), 210 UG TOTAL DOSE (30 UG/5 µL,, Dose: 0, 6.3 UG TOTAL DOSE (0.9 UG/5 µL, 1.8 UG/10 µL, 3.6 UG/20 µL DMSO ON DAYS 1, 8 AND 15), 210 UG TOTAL DOSE (30 UG/5 µL): inactive; negative
carcinogen call (Species: MOUSE, Strain/Sex: ICR/MALE, Route: INTRAPERITONEAL, Dose: 0, 6.3 UG TOTAL DOSE (0.9 UG/5 µL, 1.8 UG/10 µL, 3.6 UG/20 µL DMSO ON DAYS 1, 8 AND 15), 210 UG TOTAL DOSE (30 UG/5 µL,, Dose: 0, 6.3 UG TOTAL DOSE (0.9 UG/5 µL, 1.8 UG/10 µL, 3.6 UG/20 µL DMSO ON DAYS 1, 8 AND 15), 210 UG TOTAL DOSE (30 UG/5 µL): inactive; negative
carcinogen call (Species: RAT, Strain/Sex: OSBORNE-MENDEL/FEMALE, Route: INTRAPULMONARY IMPLANT, Dose: 0, 1, 3 MG IN BEESWAX AND TRIOCTANOIN IMPLANTED IN LUNG (STUDY DURATION: 141 WK), Dose: 0, 1, 3 MG IN BEESWAX AND TRIOCTANOIN IMPLANTED IN LUNG (STUDY DURATION: 141 WK), Tumor Site: Type of Lesion: LUNG: CARCINOMA): active; positive

O=NN1CCCOC1
carcinogen call (Species: RAT, Strain/Sex: F344/FEMALE, Route: ORAL, Dose: 40 MG/L IN DRINKING WATER FOR 50 WK, Tumor Site: Type of Lesion: LIVER: HEPATOCELLULAR CARCINOMA, HEMANGIOENDOTHELIAL SARCOMA): active; positive

CCCCOC(=O)c1ccc(O)cc1
carcinogen call (Species: MOUSE, Strain/Sex: ICR/FEMALE, Route: ORAL, Dose: 0, 0.15, 0.3, 0.6% IN DIET FOR 102 WK (STUDY DURATION: 106 WK), Dose: 0, 0.15, 0.3, 0.6% IN DIET FOR 102 WK (STUDY DURATION: 106 WK)): inactive; negative
carcinogen call (Species: MOUSE, Strain/Sex: ICR/MALE, Route: ORAL, Dose: 0, O.15, 0.3, 0.6% IN DIET FOR 102 WK (STUDY DURATION: 106 WK), Dose: 0, O.15, 0.3, 0.6% IN DIET FOR 102 WK (STUDY DURATION: 106 WK)): inactive; negative

CNc1nncc2ccccc12
carcinogen call (Species: MOUSE, Strain/Sex: SWISS/MALE,FEMALE, Route: ORAL, Dose: 0.125% IN WATER, Tumor Site: Type of Lesion: LUNG): active; positive
carcinogen call (Species: RAT, Strain/Sex: SPRAGUE-DAWLEY/MALE, Route: ORAL, Dose: 0, 0.035% IN DIET FOR 68-87 WK (STUDY DURATION: 87 WK)): inactive; negative
carcinogen call (Species: RAT, Strain/Sex: SPRAGUE-DAWLEY/MALE, Route: SUBCUTANEOUS, Dose: 0, 16.7 MG/KG 1/WK FOR 87 WK (STUDY DURATION: 87 WK)): inactive; negative
carcinogen call (Species: RAT, Strain/Sex: SPRAGUE-DAWLEY/MALE, Route: SUBCUTANEOUS, Dose: 0, 16.7 MG/KG 1/WK FOR 87 WK ADMINISTERED TO PARTIALLY HEPATECTOMIZED RATS (STUDY DURATION: 87 WK)): inactive; negative

CC(C)CCC[C@@H](C)[C@H]1CC[C@H]2[C@@H]3CC=C4C[C@@H](OC(=O)Cc5ccc(N(CCCl)CCCl)cc5)CC[C@]4(C)[C@H]3CC[C@]12C
carcinogen call (Species: MOUSE, Strain/Sex: B6C3F1/FEMALE, Route: GAVAGE, Dose: 0, 7, 15, 30 MG/KG 3/WK FOR 52-88 WK (STUDY DURATION: 62-104 WK), Dose: 0, 7, 15, 30 MG/KG 3/WK FOR 52-88 WK (STUDY DURATION: 62-104 WK), Tumor Site: Type of Lesion: LUNG: ALVEOLAR/BRONCHIOLAR ADENOMA, CARCINOMA, MYOCARDIUM: SARCOMA, OVARIES: TUBULAR ADENOMA, HEMATOPOIETIC SYSTEM (LEUK, Tumor Site: Type of Lesion: LUNG: ALVEOLAR/BRONCHIOLAR ADENOMA, CARCINOMA, MYOCARDIUM: SARCOMA, OVARIES: TUBULAR ADENOMA, HEMATOPOIETIC SYSTEM (LEUK): active; positive
carcinogen call (Species: MOUSE, Strain/Sex: B6C3F1/MALE, Route: GAVAGE, Dose: 0, 7, 15, 30 MG/KG 3/WK FOR 52-102 WK (STUDY DURATION: 74-104 WK), Dose: 0, 7, 15, 30 MG/KG 3/WK FOR 52-102 WK (STUDY DURATION: 74-104 WK), Tumor Site: Type of Lesion: LUNG: ALVEOLAR/BRONCHIOLAR ADENOMA, CARCINOMA, HEMATOPOIETIC SYSTEM (LEUKEMIA), LYMPHATIC SYSTEM: LYMPHOMA, MYOCARDIUM:, Tumor Site: Type of Lesion: LUNG: ALVEOLAR/BRONCHIOLAR ADENOMA, CARCINOMA, HEMATOPOIETIC SYSTEM (LEUKEMIA), LYMPHATIC SYSTEM: LYMPHOMA, MYOCARDIUM:): active; positive
carcinogen call (Species: RAT, Strain/Sex: SPRAGUE-DAWLEY/FEMALE, Route: GAVAGE, Dose: 0, 5, 10 MG/KG 3/WK FOR 52 WKS (STUDY DURATION: 84-85 WK), Dose: 0, 5, 10 MG/KG 3/WK FOR 52 WKS (STUDY DURATION: 84-85 WK), Tumor Site: Type of Lesion: MAMMARY GLAND: ADENOCARCINOMA, FIBROADENOMA): active; positive
carcinogen call (Species: RAT, Strain/Sex: SPRAGUE-DAWLEY/MALE, Route: GAVAGE, Dose: 0, 5, 10 MG/KG 3/WK FOR 52 WK (STUDY DURATION: 84-85 WK), Dose: 0, 5, 10 MG/KG 3/WK FOR 52 WK (STUDY DURATION: 84-85 WK)): inactive; negative

O=C1CCc2c1cc1c3c2ccc2cccc(c23)C1
carcinogen call (Species: MOUSE, Strain/Sex: T.O./MALE, FEMALE, Route: DERMAL, Dose: 0, 50 UG IN TOLUENE SOLUTION 2 D/WK FOR 39 OR 50 WK (STUDY DURATION: 2 YR), Tumor Site: Type of Lesion: SKIN: PAPILLOMA OR CARCINOMA): active; positive
